Data published in ChEMBL document CHEMBL4308841, “Synthesis, in vitro antiproliferative activity, and kinase inhibitory effects of pyrazole-containing diarylureas and diarylamides” (Eur J Med Chem, 2018).

How the values were obtained:
[1] = tested on: HOP-62; test: Growth inhibition of human HOP62 cells incubated for 48 hrs by sulforhodamine B assay; type: functional, cell-based; details: HOP-62, 48 h
[2] = tested on: NCI-H23; test: Growth inhibition of human NCI-H23 cells incubated for 48 hrs by sulforhodamine B assay; type: functional, cell-based; details: NCI-H23, 48 h
[3] = tested on: HCT-15; test: Growth inhibition of human HCT15 cells incubated for 48 hrs by sulforhodamine B assay; type: functional, cell-based; details: HCT-15, 48 h
[4] = tested on: SF-539; test: Growth inhibition of human SF539 cells incubated for 48 hrs by sulforhodamine B assay; type: functional, cell-based; details: SF-539, 48 h
[5] = tested on: SK-MEL-2; test: Growth inhibition of human SK-MEL-2 cells incubated for 48 hrs by sulforhodamine B assay; type: functional, cell-based; details: SK-MEL-2, 48 h
[6] = tested on: SK-MEL-28; test: Growth inhibition of human SK-MEL-28 cells incubated for 48 hrs by sulforhodamine B assay; type: functional, cell-based; details: SK-MEL-28, 48 h
[7] = tested on: UO-31; test: Growth inhibition of human UO31 cells incubated for 48 hrs by sulforhodamine B assay; type: functional, cell-based; details: UO-31, 48 h
[8] = tested on: MCF7; test: Growth inhibition of human MCF7 cells incubated for 48 hrs by sulforhodamine B assay; type: functional, cell-based; details: MCF7, 48 h
[9] = tested on: SF-295; test: Growth inhibition of human SF295 cells assessed as cell growth at 0.01 uM incubated for 48 hrs by sulforhodamine B assay relative to control; type: functional; details: SF-295, 48 h, read-out: Activity
[10] = tested on: Malme-3M; test: Growth inhibition of human MALME-3M cells assessed as cell growth at 0.01 uM incubated for 48 hrs by sulforhodamine B assay relative to control; type: functional; details: read-out: Activity
[11] = tested on: OVCAR-3; test: Growth inhibition of human OVCAR3 cells assessed as cell growth at 0.01 uM incubated for 48 hrs by sulforhodamine B assay relative to control; type: functional; details: OVCAR-3, 48 h, read-out: Activity
[12] = tested on: OVCAR-5; test: Growth inhibition of human OVCAR5 cells assessed as cell growth at 0.01 uM incubated for 48 hrs by sulforhodamine B assay relative to control; type: functional; details: OVCAR-5, 48 h, read-out: Activity
[13] = tested on: MDA-MB-231; test: Growth inhibition of human MDA-MB-231 cells assessed as cell growth at 0.01 uM incubated for 48 hrs by sulforhodamine B assay relative to control; type: functional; details: MDA-MB-231, 48 h, read-out: Activity
[14] = tested on: HCT-116; test: Growth inhibition of human HCT116 cells assessed as cell growth at 0.1 uM incubated for 48 hrs by sulforhodamine B assay relative to control; type: functional; details: HCT-116, 48 h, read-out: Activity
[15] = tested on: SK-MEL-2; test: Growth inhibition of human SK-MEL-2 cells assessed as cell growth at 0.1 uM incubated for 48 hrs by sulforhodamine B assay relative to control; type: functional; details: SK-MEL-2, 48 h, read-out: Activity
[16] = tested on: UO-31; test: Growth inhibition of human UO31 cells assessed as cell growth at 0.1 uM incubated for 48 hrs by sulforhodamine B assay relative to control; type: functional; details: UO-31, 48 h, read-out: Activity
[17] = tested on: PC-3; test: Growth inhibition of human PC3 cells assessed as cell growth at 0.1 uM incubated for 48 hrs by sulforhodamine B assay relative to control; type: functional; details: PC-3, 48 h, read-out: Activity
[18] = tested on: MDA-MB-231; test: Growth inhibition of human MDA-MB-231 cells assessed as cell growth at 0.1 uM incubated for 48 hrs by sulforhodamine B assay relative to control; type: functional; details: MDA-MB-231, 48 h, read-out: Activity
[19] = tested on: Hs-578T; test: Growth inhibition of human Hs578T cells assessed as cell growth at 0.1 uM incubated for 48 hrs by sulforhodamine B assay relative to control; type: functional; details: read-out: Activity
[20] = tested on: RPMI-8226; test: Growth inhibition of human RPMI8226 cells assessed as cell growth at 1 uM incubated for 48 hrs by sulforhodamine B assay relative to control; type: functional; details: RPMI-8226, 48 h, read-out: Activity
[21] = tested on: OVCAR-3; test: Growth inhibition of human OVCAR3 cells assessed as cell growth at 1 uM incubated for 48 hrs by sulforhodamine B assay relative to control; type: functional; details: OVCAR-3, 48 h, read-out: Activity
[22] = tested on: ACHN; test: Growth inhibition of human ACHN cells assessed as cell growth at 1 uM incubated for 48 hrs by sulforhodamine B assay relative to control; type: functional; details: read-out: Activity
[23] = tested on: CCRF-CEM; test: Growth inhibition of human CCRF-CEM cells assessed as cell growth at 100 uM incubated for 48 hrs by sulforhodamine B assay relative to control; type: functional; details: read-out: Activity
[24] = tested on: A549; test: Growth inhibition of human A549/ATCC cells assessed as cell growth at 100 uM incubated for 48 hrs by sulforhodamine B assay relative to control; type: functional; details: A549, 48 h, read-out: Activity
[25] = tested on: Malme-3M; test: Growth inhibition of human MALME-3M cells assessed as cell growth at 100 uM incubated for 48 hrs by sulforhodamine B assay relative to control; type: functional; details: read-out: Activity
[26] = tested on: MDA-MB-435; test: Growth inhibition of human MDA-MB-435 cells assessed as cell growth at 100 uM incubated for 48 hrs by sulforhodamine B assay relative to control; type: functional; details: MDA-MB-435, 48 h, read-out: Activity
[27] = tested on: SK-MEL-2; test: Growth inhibition of human SK-MEL-2 cells assessed as cell growth at 100 uM incubated for 48 hrs by sulforhodamine B assay relative to control; type: functional; details: SK-MEL-2, 48 h, read-out: Activity
[28] = tested on: UACC-257; test: Growth inhibition of human UACC257 cells assessed as cell growth at 100 uM incubated for 48 hrs by sulforhodamine B assay relative to control; type: functional; details: UACC-257, 48 h, read-out: Activity
[29] = read-out: LC50 (the source's name)
[30] = read-out: pLC50 (the source's name) (converted)

O=C(Nc1cccc(-n2cc(-c3ccncc3)c(-c3cc(O)cc(Cl)c3)n2)c1)c1ccc(N2CCOCC2)c(C(F)(F)F)c1
GI50 ([1]; read-out: GI50): 3.59 µM
CC50 [1, 29]: > 100 µM
TGI ([1]; read-out: TGI): 58.2 µM
GI50 ([1]; read-out: pGI50 (converted)): 3.55 µM
CC50 [1, 30]: > 100 µM
TGI ([1]; read-out: pTGI (converted)): 58.9 µM
GI50 ([2]; read-out: GI50): 3.56 µM
LC50 ([2]; read-out: LC50): > 100 µM
TGI ([2]; read-out: TGI): 38.8 µM
GI50 ([2]; read-out: pGI50 (converted)): 3.63 µM
LC50 ([2]; read-out: pLC50 (converted)): > 100 µM
TGI ([2]; read-out: pTGI (converted)): 38.9 µM
GI50 ([3]; read-out: GI50): 0.559 µM
CC50 [3, 29]: 84.9 µM
TGI ([3]; read-out: TGI): 11.3 µM
GI50 ([3]; read-out: pGI50 (converted)): 0.562 µM
CC50 [3, 30]: 85.1 µM
TGI ([3]; read-out: pTGI (converted)): 11.2 µM
GI50 ([4]; read-out: GI50): 1.44 µM
CC50 [4, 29]: > 100 µM
TGI ([4]; read-out: TGI): 44.7 µM
GI50 ([4]; read-out: pGI50 (converted)): 1.45 µM
CC50 [4, 30]: > 100 µM
TGI ([4]; read-out: pTGI (converted)): 4.47 µM
GI50 ([5]; read-out: GI50): 2.34 µM
CC50 [5, 29]: > 100 µM
TGI ([5]; read-out: TGI): 13.2 µM
GI50 ([5]; read-out: pGI50 (converted)): 2.34 µM
CC50 [5, 30]: > 100 µM
TGI ([5]; read-out: pTGI (converted)): 13.2 µM
GI50 ([6]; read-out: GI50): 0.759 µM
CC50 [6, 29]: > 100 µM
TGI ([6]; read-out: TGI): 32.7 µM
GI50 ([6]; read-out: pGI50 (converted)): 0.759 µM
CC50 [6, 30]: > 100 µM
TGI ([6]; read-out: pTGI (converted)): 3.24 µM
IC50 [7]: 1.41 µM
GI50 ([7]; read-out: GI50): 1.41 µM
CC50 [7, 29]: > 100 µM
TGI ([7]; read-out: TGI): 15.5 µM
GI50 ([7]; read-out: pGI50 (converted)): 1.12 µM
CC50 [7, 30]: > 100 µM
TGI ([7]; read-out: pTGI (converted)): 15.5 µM
GI50 ([8]; read-out: GI50): 4.18 µM
LC50 ([8]; read-out: LC50): > 100 µM
TGI ([8]; read-out: TGI): > 100 µM
GI50 ([8]; read-out: pGI50 (converted)): 4.17 µM
LC50 ([8]; read-out: pLC50 (converted)): > 100 µM
TGI ([8]; read-out: pTGI (converted)): > 100 µM
growth at 0.01 µM [9]: 97%
growth at 0.01 µM [10]: 58%
growth at 0.01 µM [11]: 111%
growth at 0.01 µM [12]: 52%
growth at 0.01 µM [13]: 100%
growth at 0.1 µM [14]: 102%
growth at 0.1 µM [15]: 101%
growth at 0.1 µM [16]: 95%
growth at 0.1 µM [17]: 92%
growth at 0.1 µM [18]: 92%
growth at 0.1 µM [19]: 90%
growth at 1 µM [20]: 17%
growth at 1 µM [21]: 99%
growth at 1 µM [22]: 52%
growth at 100 µM [23]: 2%
growth at 100 µM [24]: -14%
growth at 100 µM [25]: -25%
growth at 100 µM [26]: 8%
growth at 100 µM [27]: -30%
growth at 100 µM [28]: -27%
